Experimental data taken from publication PMC3673949, “Small Molecule R1498 as a Well-Tolerated and Orally Active Kinase Inhibitor for Hepatocellular Carcinoma and Gastric Cancer Treatment via Targeting Angiogenesis and Mitosis Pathways” (PLoS ONE, 2013).
Where two headings read alike, the source gives them in different places.

Tests used:
BEL-7402 cells = assay: Cell cycle distribution by flow cytometry; assay type: cell-based, human; settings: BEL-7402, 10 µM
Protocol: (§1) DNA content was measured with a FACS-Calibur cytometer (Becton Dickinson, San Jose, CA) and cell cycle distribution was calculated as described previously.

SGC-7901 cells = assay: Cell cycle distribution by flow cytometry; assay type: cell-based, human; settings: SGC-7901, 10 µM
Protocol: as §1

[1] = Single dose pharmacokinetic (SDPK) study; assay type: in vivo; settings: for Oral BA: micronized API suspension; for clearance / Vd / half-life: plasma; for clearance / Vd: iv, 5 mg/kg, single dose; for Vd: read-out: Vdss; for half-life: iv 5 mg/kg
Protocol: Blood samples were collected by retro-orbital puncture at pre-dose and 0.033, 0.083, 0.25,0.5, 1, 2, 4, 6, 8, and 24 hours post-dose. The plasma samples and the dose formulation were stored at −20°C until bioanalysis. The data acquisition and control system were created using Analyst 1.4 software from ABI Inc. The concentrations in plasma below the limit of quantitation (LOQ = 1 ng/mL) were designated as zero. […] For rat, dog and monkey SDPK, the blood samples were collected from jugular vein puncture.

With `COc1ccc2c(c1)C(c1ccccc1Cl)=Nc1c(n[nH]c1C)N2` [R1498] as the compound, how does the “cells with >4N DNA content” value (BEL-7402 cells; control 6.7%) read?
Its value is 17.6%.

And the “cells in G2/M phases” value (BEL-7402 cells; control 25.6%)?
Its value is 57.0%.

What about the “cells with >4N DNA content (polyploid cells)” value (SGC-7901 cells; control 3.1%) of the same compound?
The value was 21.6%.

What about the “cells in G2/M phases” value (SGC-7901 cells; control 25.2%) of the same compound?
Its value is 75.5%.

What about the “Oral BA” value ([1]; Dog, 50-100 mg/kg) of the same compound?
Its value is 32-45 (50-100 mg/kg) %.

What about the “Oral BA” value ([1]; Monkey, 12.5 mg/kg) of the same compound?
The value was 4 (12.5 mg/kg) %.

And the “Oral BA” value ([1]; Rat, 25-400 mg/kg)?
The value was 9-44 (25-400 mg/kg) %.

What about the clearance ([1]; Dog) of the same compound?
Its clearance is 1.9 mL/min/kg.

What about the Vd ([1]; Dog) of the same compound?
The Vd was 2.7 L/kg.

What about the clearance ([1]; Monkey) of the same compound?
Its clearance is 25.3 mL/min/kg.

What about the Vd ([1]; Monkey) of the same compound?
The Vd was 2.1 L/kg.

And the clearance ([1]; Rat)?
Its clearance is 5.6 mL/min/kg.

What about the Vd ([1]; Rat) of the same compound?
Its Vd is 1.6 L/kg.

And the half-life ([1]; Dog)?
The half-life was 16.8 h.

And the half-life ([1]; Monkey)?
Its half-life is 1.5 h.

What about the half-life ([1]; Rat) of the same compound?
Its half-life is 3.2 h.
